# Where two headings read alike, the source gives them in different places.
# Assays:
# [1] = system: native NMDA receptors of rat CA1 hippocampal pyramidal neurons; experiment: Whole-cell patch-clamp of NMDA-induced currents in isolated CA1 pyramidal neurons; type: cell-based; settings: for inhibition of NMDA receptor steady-state currents (in words): 10 µM; for agonist dependence of action: NMDA 30 µM vs 1 mM; for agonist dependence of action / voltage dependence of inhibition (in words): cycloguanil 5 µM, proguanil 10 µM, phenformin 20 µM; for Kd: fit of voltage dependence (+30 to −120 mV) with Equation (2); for δ (fraction of membrane electric field crossed): fit with Equation (2), * = fixed value; for voltage dependence of inhibition (in words): holding potential +30 to −120 mV; for competitive or not competitive inhibition: inhibition compared at 30 µM and 1000 µM NMDA; for % of Inhibition (10 µM) −80 mV: steady-state current, 10 µM compound; for % of trapping in double-pulse protocol / tail currents on coapplication with agonist: cycloguanil 100 µM; for washout of mixture with Mg2+ compared with compound alone: 10 mM Mg2+; for Hill Coeff.: concentration–inhibition curve; for washout τ, compound alone (representative recording) / washout τ, compound + Mg (representative recording): Figure 5; for washout τ, compound + Mg (representative recording): with 10 mM Mg2+; for tail currents on coapplication with agonist: proguanil 100 µM, phenformin 300 µM; for washout time constant τ, compound alone: proguanil 30 µM, magnesium 10 mM
# Procedure: NMDA receptors of these neurons consist mainly of GluN1, GluN2A and/or GluN2B subunits. We initially checked whether 10 µM concentrations of biguanide compounds metformin, phenformin, moroxydine, cycloguanil and proguanil would inhibit these steady-state currents. […] Hill coefficients were 1.0 ± 0.1, 1.1 ± 0.2 and 1.1 ± 0.1 for cycloguanil, proguanil and phenformin, respectively.
# All experiments were conducted with approval by the Animal Care and Use Committee of the Sechenov Institute of Evolutionary Physiology and Biochemistry of the Russian Academy of Sciences (protocol 1-13/2023, 26 January 2023). Outbred male Wistar rats (13–18 days old, weighing 25–35 g) were sourced from the IEPHB facility. Maximum efforts were made to minimize the number of animals used and to reduce discomfort.
# The rats were decapitated after sevoflurane anaesthetization. The brains were rapidly removed and cooled to 2–4 °C. Transverse hippocampal slices were prepared using a vibratome (Campden Instruments, Loughborough, UK), and single neurons were freed from slices by vibrodissociation. All experiments were performed at room temperature.
# The whole-cell patch clamp technique was used to record membrane currents in response to applications of the agonists. Series resistance (<20 MΩ) was compensated by 70–80% and monitored during experiments. Currents were recorded using an EPC-8 amplifier (HEKA Electronics, Lambrecht, Germany), filtered at 5 kHz, sampled and stored on a personal computer. Drugs were applied using an RSC-200 (BioLogic, Seyssinet-Pariset, France) perfusion system under computer control. The extracellular solution contained (in mM) NaCl 143, KCl 5, CaCl2 2.5, D-glucose 18, and HEPES 10 (pH adjusted to 7.4 with […]). The pipette solution contained (in mM) CsF 100, CsCl 40, NaCl 5, CaCl2 0.5, EGTA 5, and HEPES 10 (pH adjusted to 7.2 with CsOH). Proguanil (HY-B0806), cycloguanil (HY-12784), phenformin hydrochloride (HY-16397A), metformin hydrochloride (HY-17471A), moroxydine hydrochloride (HY-B0420A) and ifenprodil tartrate (HY-12882A) were obtained from MedChemExpress (Monmouth Junction, NJ, USA). Other reagents were purchased from MedChemExpress (Monmouth Junction, NJ, USA), Sigma (St. Louis, MO, USA) or Tocris Bioscience (Bristol, UK).
# Experiments were performed on pyramidal neurons from the CA1 area of the hippocampus. Unless otherwise specified, NMDA receptors were activated with 100 µM NMDA and 10 µM glycine. The percentage of steady-state current blockage by various drug concentrations was measured at holding voltages of either −80 or −30 mV. Transient processes lasting more than 20 ms were modeled using single or double exponential functions. In the case of double exponential fitting, the weighted time constant was employed.
# The voltage dependence of the compounds’ action was analyzed using the classical Woodhull model with the voltage-independent component addition. According to the Woodhull model of an impermeable blocker, the voltage dependence of steady-state blockade is defined by Equation (1):(1) B=100/(1+Kb/C×exp〖Fzδ/RTV〗) where V is voltage; B is the level of the block (%); C is the concentration of the drug; z is the molecular charge; and R, F and T have their standard meanings. Kb is the affinity of a drug for the channel, and δ is the electrical depth of the binding site. The δ value reflects the fraction of membrane electric field that the charged blocking molecule crosses on its pathway between the external media and the binding site in the channel.
# Our experimental data were not well fitted by the abovementioned equation, presumably because of the presence of a voltage-independent component. Thus, we used an Equation (2), taking it into account, assuming that the binding to the deep and superficial site is independent:(2) B=100−100/(1+C/(Kvd×exp〖Fzδ/RTV〗)+C/Kvi+(C×C)/(Kvd×exp〖Fzδ/RTV〗×Kvi)) […]
# [2] = target: NMDA receptors; settings: −30 mV in the presence of physiological magnesium concentration; read-out: IC50 of memantine; cited from earlier work
# [3] = system: NMDA receptors; parameters: method as in PMID 12009768; settings: acute phenformin treatment, cited from earlier work
# [4] = read-out: Kvd (affinity for the deep site in the channel pore)
# [5] = read-out: Kvi (affinity for the superficial, voltage-independent site)
# [6] = 100 µM NMDA + 10 µM glycine, −80 mV, no Mg2+
# [7] = −30 mV holding voltage, 1 mM Mg2+, read-out: IC50 at −30 mV in the presence of 1 mM Mg2+
# [8] = −30 mV holding voltage, no Mg2+, read-out: IC50 at −30 mV in the absence of Mg2+
# [9] = −80 mV holding voltage, no Mg2+, 100 µM NMDA + 10 µM glycine, read-out: IC50, µM −80 mV
# [10] = −80 mV, Cyclog 10 µM, Ifen 10 µM
# [11] = −80 mV, Mg 10 mM, Prog 30 µM, Phen 50 µM
Structure (SMILES),mechanism of NMDA receptor inhibition [1],inhibition of NMDA receptor steady-state currents (in words) ([1]; −80 mV),agonist dependence of action [1],"Kd [1, 4] [µM]","Kd [1, 5] [µM]",δ (fraction of membrane electric field crossed) [1],voltage dependence of inhibition (in words) [1],competitive or not competitive inhibition [1],"% of Inhibition (10 µM) −80 mV [1, 6]",effect of 1 mM Mg2+ on activity at −30 mV ([1]; −30 mV holding voltage),"IC50 [1, 7] [µM]","IC50 [1, 8] [µM]",overshoots on washout in the presence of agonists ([1]; −80 mV),"IC50 [1, 9] [µM]",% of trapping in double-pulse protocol ([1]; −80 mV holding voltage) [%],washout of mixture with Mg2+ compared with compound alone ([1]; −80 mV),Hill Coeff. ([1]; −80 mV),"washout τ, compound + Mg (representative recording) ([1]; −80 mV) [ms]",tail currents on coapplication with agonist ([1]; −80 mV),"washout τ, compound alone (representative recording) [1, 11] [ms]",further results
"CC1(C)N=C(N)N=C(N)N1c1ccc(Cl)cc1 [Cycloguanil, cycloguanil]",voltage-dependent trapping channel blocker,significant inhibition,agonist-independent,55 ± 11,> 500,0.7 ± 0.1,clearly voltage-dependent,not competitive,76 ± 5 (n = 4) %,attenuated,34 ± 10,20 ± 5,did not demonstrate overshoots,3.4 ± 0.6,68 ± 11,significantly faster,1.0 ± 0.1,60,tail current absence,,"washout τ, compound alone (representative recording) [1, 10]: 3000 ms"
CC12CC3CC(C)(C1)CC(N)(C3)C2 [memantine],,,,,,,,,,,,,,,,,,,,,IC50 [2]: 6.4 ± 0.5 µM
"[H]/N=C(\N/C(=N/[H])Nc1ccc(Cl)cc1)NC(C)C [Proguanil, proguanil]",allosteric inhibitors,significant inhibition,more active in conditions of higher agonist concentration,> 500,14 ± 1,0.7 *,mostly voltage-independently with a small voltage-dependent component,not competitive,51 ± 6 (n = 5) %,not affected,17 ± 3,13 ± 3,did not demonstrate overshoots,9 ± 2.2,< 5,significantly faster,1.1 ± 0.2,75,tail current absence,550,"activity lower than that of memantine (fold) ([1]; −30 mV, 1 mM Mg2+, compared with memantine IC50 of ref 40): approximately three-fold; washout time constant τ, mixture with Mg2+ ([1]; −80 mV, mean ± SD, proguanil 30 µM + 10 mM Mg2+): 76 ± 32 ms; washout time constant τ, compound alone ([1]; −80 mV, mean ± SD): 470 ± 120 ms"
"N=C(N)/N=C(\N)N1CCOCC1 [Moroxydine, moroxydine]",,practically ineffective,,,,,,,5 ± 4 (n = 4) %,,,,,,,,,,,,
CC(C(O)c1ccc(O)cc1)N1CCC(Cc2ccccc2)CC1 (stereo not drawn) [ifenprodil],,,,,,,,,,,,,,,,does not affect,,28000,,,"washout τ, compound alone (representative recording) [1, 10]: 28000 ms"
"[H]/N=C(/N)N/C(=N/[H])NCCc1ccccc1 [Phenformin, phenformin]",allosteric inhibitors,significant inhibition,more active in conditions of higher agonist concentration,> 500,22 ± 2,0.7 *,mostly voltage-independently with a small voltage-dependent component,not competitive,44 ± 2 (n = 5) %,not affected,41 ± 6,36 ± 5,did not demonstrate overshoots,13 ± 1,< 5,significantly faster,1.1 ± 0.1,50,tail current absence,180,effect on NMDA-induced whole-cell current ([3]; 1 µM): did not affect; effect on calcium responses to NMDA [3]: did not alter
"CN(C)C(=N)N=C(N)N [Metformin, metformin]",,practically ineffective,,,,,,,6 ± 5 (n = 4) %,,,,,,,,,,,,
[Mg+2] [magnesium],,,,,,,,,,,,,,,,,,,,30,"washout time constant τ, compound alone ([1]; −80 mV, mean ± SD): 30 ± 16 ms"

# Reference: paper PMC11434645, “Mechanisms of NMDA Receptor Inhibition by Biguanide Compounds” (Pharmaceuticals, 2024)
